According to PMC8704648 (Pharmaceutics, 2021):

Settings: TG, oxidizing atmosphere

## COc1ccc2cc([C@H](C)C(=O)O)ccc2c1 [Naproxen, (+)-(S)-2-(6-Methoxynaphthalen-2-yl)propanoic acid]
  Tonset, the onset of the thermal degradation: 249.9 °C
